Assay results reported in US11304944B2, “MetAP2 inhibitors and methods of treating obesity” (SynDevRx, Inc., priority 2013, dated 2022).
Counter-ions that a name gives are not always drawn.

Columns and labels:
DIO Levin rats [1] = test: Oral Glucose Tolerance Test (OGTT) Day 48 and HOMA-ir in DIO Levin rats; assay type: in vivo; conditions: for Blood Glucose, Time 15 / Blood Glucose, Time 30 / Blood Glucose, Time 60 / Blood Glucose, Time 90 / Blood Glucose, Time 120: OGTT; for BW: at OGTT;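 on Blood Glucose pre-OGTT: blood glucose in mg/dL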;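 on Blood Glucose, Time 120: blood glucose in mg/dL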;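 on Blood Glucose, Time 15: blood glucose in mg/dL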;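 on Blood Glucose, Time 30: blood glucose in mg/dL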;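 on Blood Glucose, Time 60: blood glucose in mg/dL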;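 on Blood Glucose, Time 90: blood glucose in mg/dL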
Protocol: (§1) Animals were weighed every other day. Food consumption was measured weekly. On an approximately weekly basis throughout the study, blood samples were taken for assessment of serum chemistries including glucose and insulin. On Day 48 all rats underwent a 4 hour fasted Oral Glucose Tolerance Test (OGTT). Animals were dosed orally (per os, PO) at 8 mL/kg 25% glucose (2 g/kg). On day 68, gross pathology was performed to determine body composition.

[2] = Plasma pharmacokinetics after single IV bolus in Sprague Dawley rats (LC/MS/MS, analyte Compound 1); assay type: in vivo; conditions: male, rat, Compound 1 30 mg/kg single IV bolus
Protocol: Blood samples were collected via saphenous vein puncture at 0, 0.25, 0.5, 1, 2, 4, 8, 24 and 48 hours.

DIO Levin rats [3] = test: In vivo testing DIO Levin rats: weight changes, food consumption, insulin, leptin levels; conditions: for Final BW: after 68 days, 60% fat diet
Protocol: CKD-732 as referred to herein is the hemitartrate salt of the following structure:
Test articles were administered subcutaneously on an every 4 day (q4d) schedule in a diet-induced obesity (DIO) Levin-DS rat model. […] A dietary intervention (Standard Chow, Labdiet 5001; 3.4 kcal/g) was included to compare to the drug interventions. Upon arrival at three weeks of age, the male rats received ad libitum pellets of Harlan Diet TD.06414, 60% of calories from fat, 21% of calories from carbohydrate; 5.1 kcal/g. Prior to dosing the rats were randomized into groups of three animals with an average body weight of 595 gm. […] Compound 1 in the form of the hemitartrate and CKD-732 in the form of the hemitartrate were dissolved in ethanol prior to dilution with vehicle. All doses were administered at a volume of 5.0 ml/kg. […] On day 1, first dose, the rats were 14 weeks of age. Also on day 1, Group 2 was switched from the high fat diet to a standard chow diet; the remaining groups were maintained on a high fat diet for the duration of the study.
as §1

## COC1C(OC(=O)N[C@H]2CC[C@H](N)CC2)CC[C@]2(CO2)C1[C@@]1(C)O[C@@H]1CC=C(C)C (stereo partly drawn) [Compound 1, Fumagill-6-yl [trans-(4-aminocyclohexyl)]carbamate]
DIO Levin rats [1]; 1 mg/kg q4d sc
  Blood Glucose pre-OGTT: 124 mg/dL
  HOMA-ir (Insulin Sensitivity) 15 min: 42.7
  HOMA-ir (Insulin Sensitivity) 30 min: 21.1
  HOMA-ir (Insulin Sensitivity) Pre-dose: 15.4
  Blood Glucose, Time 15: 156 mg/dL
  Blood Glucose, Time 30: 142 mg/dL
  Blood Glucose, Time 60: 152 mg/dL
  Blood Glucose, Time 90: 151 mg/dL
  Blood Glucose, Time 120: 142 mg/dL
  BW: 686 g
DIO Levin rats [1]; 3 mg/kg q4d sc
  Blood Glucose pre-OGTT: 123 mg/dL
  HOMA-ir (Insulin Sensitivity) 15 min: 29.2
  HOMA-ir (Insulin Sensitivity) 30 min: 9.5
  HOMA-ir (Insulin Sensitivity) Pre-dose: 12.2
  Blood Glucose, Time 15: 175 mg/dL
  Blood Glucose, Time 30: 171 mg/dL
  Blood Glucose, Time 60: 149 mg/dL
  Blood Glucose, Time 90: 147 mg/dL
  Blood Glucose, Time 120: 129 mg/dL
  BW: 668 g
[2]
  Cmax: ~15 µM
  half-life: 10 to 15 min
DIO Levin rats [3]; 1 mg/kg Q4D
  lower body weight than vehicle: 3.9%
DIO Levin rats [3]; 1 mg/kg q4d sc
  Avg. Insulin Day 7: 1.83 ng/mL
  Avg. Insulin Day 15: 1.39 ng/mL
  Avg. Insulin Day 23: 1.20 ng/mL
  Avg. Insulin Day 48: 1.75 ng/mL
  Avg. Insulin Pre-dosing: 1.92 ng/mL
  Group Average Food Consumption Day 1-8: 128.6 g
  Group Average Food Consumption Day 9-15: 109.3 g
  Group Average Food Consumption Day 16-23: 121.1 g
  Group Average Food Consumption Day 24-30: 145.9 g
  Group Average Food Consumption Day 31-36: 144.6 g
  Group Average Food Consumption Day 37-43: 141.7 g
  Group Average Food Consumption Day 44-50: 122.4 g
  Group Average Food Consumption Day 51-57: 147.7 g
  Group Average Food Consumption Day 58-63: 140.7 g
  Group Average Food Consumption Day 63-68: 55.1 g
  Leptin Levels Day 29: 2.47
  Leptin Levels Pre-dose: 2.50
  Leptin Levels, Day 29, % Change from Baseline: −1.3%
DIO Levin rats [3]; 1.0 mg/kg q4d sc
  Final BW: 717.3 g
DIO Levin rats [3]; 3 mg/kg Q4D, end of the study
  lower body weight than the vehicle control: 8.9%
DIO Levin rats [3]; 3 mg/kg q4d sc
  Avg. Insulin Day 7: 1.35 ng/mL
  Avg. Insulin Day 15: 1.68 ng/mL
  Avg. Insulin Day 23: 1.27 ng/mL
  Avg. Insulin Day 48: 1.40 ng/mL
  Avg. Insulin Pre-dosing: 2.10 ng/mL
  Group Average Food Consumption Day 1-8: 123.6 g
  Group Average Food Consumption Day 9-15: 98.9 g
  Group Average Food Consumption Day 16-23: 110.1 g
  Group Average Food Consumption Day 24-30: 149.3 g
  Group Average Food Consumption Day 31-36: 138.8 g
  Group Average Food Consumption Day 37-43: 130.9 g
  Group Average Food Consumption Day 44-50: 94.7 g
  Group Average Food Consumption Day 51-57: 116.2 g
  Group Average Food Consumption Day 58-63: 124.9 g
  Group Average Food Consumption Day 63-68: 49.8 g
  Leptin Levels Day 29: 3.60
  Leptin Levels Pre-dose: 3.23
  Leptin Levels, Day 29, % Change from Baseline: 11.33%
DIO Levin rats [3]; 3.0 mg/kg q4d sc
  Final BW: 684.0 g
DIO Levin rats [3]; serum leptin day 29
  reduction in leptin levels: did not result in significant reductions in leptin levels

## COC1C(OC(=O)N[C@H]2CC[C@H](N)CC2)CC[C@]2(CO2)C1[C@@]1(C)O[C@@H]1CC=C(C)C (stereo partly drawn) (as salt: tartrate) [Compound 1, Fumagill-6-yl [trans-(4-aminocyclohexyl)]carbamate]
other
  melting point: 180 to 185 °C
